Measured values as given in US8575093B2, “Composition and method for treating Streptococcus pneumoniae infection” (priority 2006, dated 2013).

Assays:
[1] = system: S. pneumoniae serotype 3 strain WU2; test: Intranasal inoculation mouse model: nasopharyngeal and lung colonization; type: in vivo, BALB/c mice; conditions: for number of bacteria in the lungs: p<0.05
Procedure: Inhibition of S. pneumoniae nasal and lung colonization with flamingo cadherin-related peptide: Seven weeks old BALB/c female mice (Harlan Laboratories, Israel) were housed in sterile conditions under 12 hour light/dark cycles and fed Purina Chow and tap water ad libitum. Animal experimental protocols were reviewed and approved by the Institutional Animal Care and Use Committee of the Ben-Gurion University of the Negev, Beer Sheva, Israel. For respiratory challenge with virulent S. pneumoniae mice were anaesthetized with Isoflurane (RxElite, Meridian, Id., USA) and inoculated intranasally (i.n.) with the denoted colony forming units (CFU) bacteria (in 25 μl PBS) prior and after treatment with the flamingo cadherin derived peptide at the denoted concentrations. […] The experiments were performed with groups of 4 mice at each treatment and each time point and the experiments were repeated on three different occasions.
To find whether FC peptide is capable of inhibiting S. pneumoniae colonization, mice were inoculated intranasally prior and after treatment with the FC-derived peptide at the denoted concentration. S. pneumoniae serotype 3, strain WU2 bacteria were treated with FC peptide, excess peptide was removed and the bacteria were inoculated intranasally. […] Using this size of inoculum, a natural clearance of bacteria from the lungs occurred 24 hours and 48 hours following inoculation.
Seven week old BALB/c female mice were anaesthetized with Isoflurane (RxElite, Meridian, Id.) and inoculated intranasally with S. pneumoniae serotype 3 strain WU2 ([…], a highly virulent bacterial strain) after treatment with 40 μg synthetic Flamingo cadherin receptor derived peptide (FCRP) for 1 hr. […]

[2] = system: S. pneumoniae encapsulated serotype 2 strain D39; test: Inhibition of S. pneumoniae adhesion to A549 cells, strain D39; type: cell-based, Streptococcus pneumoniae; conditions: p<0.001
Procedure: (§1) Inhibition of S. pneumoniae adhesion to A549 cells by addition of phages: A549 cells (type II epithelial lung carcinoma cells; ATCC, Rockville, Md., USA) were grown in DMEM medium supplemented with 10% foetal calf serum with penicillin and streptomycin (100 μg/ml each) at 37° C. in a humidified incubator. A549 cells (2.5×10^4/well) were cultured on fibronectin coated plates, to increase A549 cell adhesion to the wells and prevent their detachment during washings, in the absence of antibiotic for 24 hours at which time the cells reached confluence (5×10^4 cells/well on average). The plates were blocked with 1% gelatine for 1 hour and 10^6 CFU bacteria were added per well. The adhesion of S. pneumoniae to uncoated plates was negligible (<80 CFU/ml). The number of bacteria that adhered to fibronectin coated plates (8000±100 SD CFU/ml on average) was subtracted afterwards to determine the net number of bacteria that adhered to the A549 cells only. rFBA at the denoted concentrations (ranging from 5-30 μg/ml) was added to the cultured cells and incubated for an hour. Following extensive washings S. pneumoniae (10^6 CFU) were added for 1 hour incubation. […]
(§2) The ability of FC derived synthetic peptide to interfere in S. pneumoniae adhesion to A459 cells was analyzed. […]

[3] = system: S. pneumoniae serotype 3 strain WU2; test: Intraperitoneal lethal dose systemic infection (sepsis) mouse model; type: in vivo, BALB/c mice
Text: 1) A lethal dose of S. pneumoniae serotype 3 strain WU2 (100 CFU) was used in this experiment. Bacteria were either untreated or treated ex-vivo for 1 hr with FCRP and used to inoculate intraperitoneally 7 weeks old BALB/c mice.
2) A lethal dose of S. pneumoniae serotype 3 strain WU2 (100 CFU) was used in this experiment. Bacteria were co-administered intraperitonealy to 7 weeks old BALB/c mice in the presence and absence of FCRP. […] Furthermore, in mice infected in the absence of FCRP bacteria could be found in the spleens of 100% of the (FIG. 15B) mice.
3) In a similar experiment, the mice were inoculated with bacteria in the presence and absence of FCRP and the mice were monitored for their survival.

[4] = system: S. pneumoniae encapsulated serotype 3 strain WU2; test: Inhibition of S. pneumoniae adhesion to A549 cells, strain WU2; type: cell-based, Streptococcus pneumoniae
Procedure: as §1, with “incubation. To identify phages able to interfere in bacterial adhesion the bacteria were preincubated with the phages for 1 hour centrifuged and added to the cultured cells.” for “incubation.”

rFBA = target: T1, rFBA (Streptococcus pneumoniae serotype 4, UniProt P0A4S1); test: Western blot like assay of FCRP binding to rFBA; conditions: rFBA on nitrocellulose probed with FCRP; FIG. 7C
T1 construct: made in house; host or cells: E. coli BL21(DE3)pLysS
Procedure: Western blots: rFBA and FCRP were separated by 1D-SDS PAGE, transferred to nitrocellulose and probed with FCRP or rFBA, respectively. Rabbit anti-FCRP-KLH serum or rabbit anti rFBA was added respectively. In both cases, anti-rabbit IgG (Jackson ImmunoResearch, West Grove, Pa.) was used for final identification. In the control experiment preimmune serum was used as first antibody.
To determine more directly whether FCRP binds to rFBA, Western blot like assays were performed where rFBA is separated using 1D SDS-PAGE, transferred to a nitrocellulose membrane and probed with FCRP. Binding of FCRP was detected by incubating the membrane sequentially with rabbit anti-FCRP-KLH serum and anti-rabbit IgG. […] In the control (FIG. 7D) the first antibody was a pre-immune serum. In the converse experiment, when FCRP is separated on SDS-PAGE, a band of approximately 1.5 kDa corresponding to the molecular weight of FCRP is bound by rFBA (FIG. 7 E). In the control (FIG. 7F) the first antibody was a pre-immune serum.

[5] = system: Unencapsulated S. pneumoniae serotype 3 strain 3.8DW; test: Inhibition of S. pneumoniae adhesion to A549 cells, strain 3.8DW; type: cell-based, Streptococcus pneumoniae
Procedure: as §1, with “incubation. To identify phages able to interfere in bacterial adhesion the bacteria were preincubated with the phages for 1 hour centrifuged and added to the cultured cells.” for “incubation.”

[6] = system: S. pneumoniae serotype 3 strain WU2; test: Intranasal inoculation mouse model: nasopharyngeal and lung colonization; type: in vivo, BALB/c mice; conditions: 10^7 bacteria
[7] = system: S. pneumoniae unencapsulated serotype 2 strain R6; test: Inhibition of S. pneumoniae adhesion to A549 cells, strain R6; type: cell-based, Streptococcus pneumoniae
Procedure: as §1, §2

**Q.** Which bacterial colonization ([1]; 5×10^6 bacteria, 40 μg ex vivo, FIG. 11A) does the source give for “H-Ala-Asp-Ser-Asp-Ser-Asp-Ser-Asp-Leu-Ser-Leu-Glu-Glu-Glu-Arg-OH (H-ADSDSDSDLSLEEER-OH; listed as Homo sapiens) [FCRP, 15 amino acid peptide from Flamingo-cadherin]” here?
**A.** significant inhibition of bacterial colonization

**Q.** What about the “aspiration to the lung” value ([1]; 5×10^6 bacteria, 40 μg ex vivo, FIG. 11B) of the same molecule?
**A.** reduced aspiration to the lung

**Q.** What about the pneumonia development ([1]; 5×10^6 bacteria, 40 μg ex vivo, FIG. 11C) of the same molecule?
**A.** reduced pneumonia development

**Q.** And the nasopharyngeal colonization ([1]; 10^6 bacteria treated ex vivo 1 hr with 40 μg, 3, 24, 48 hours, FIG. 9A)?
**A.** inhibited nasopharyngeal colonization significantly

**Q.** What about the “aspiration to the lungs” value ([1]; 10^6 bacteria treated ex vivo 1 hr with 40 μg, FIG. 9B) of the same molecule?
**A.** significant inhibition of aspiration to the lungs

**Q.** What about the “bacterial load (FIG. 13A)” value ([1]; 10^7 bacteria, pre-treatment, 3 and 48 hrs) of the same molecule?
**A.** reduced bacterial load significantly

**Q.** What about the “bacterial load in lungs (FIG. 13B)” value ([1]; 10^7 bacteria, pre-treatment, 24 hour) of the same molecule?
**A.** clear reduction in bacterial load

**Q.** What about the “number of bacteria in the lungs” value ([1]; co-administered, 4 hours after inoculation) of the same molecule?
**A.** reduced significantly

**Q.** What about the “colonization in the nasopharynx” value ([1]; inoculum 5×10^5, 20 μg/ml, 3, 6, 24 and 48 hours, FIG. 4A) of the same molecule?
**A.** inhibited colonization in the nasopharynx significantly

**Q.** And the “colonization of the nasopharynx” value ([1]; inoculum 5×10^5, 40 μg/ml, all time points, FIG. 4A)?
**A.** prevented S. pneumoniae colonization of the nasopharynx at all time points tested

**Q.** What about the “colonization of the lung” value ([1]; inoculum 5×10^5, 20 or 40 μg/ml, 3 and 6 hours, FIG. 4B) of the same molecule?
**A.** inhibited significantly colonization of the lung

**Q.** And the “colonization in the nasopharynx” value ([1]; inoculum 10^6, 20 μg/ml, 3, 6, 24 and 48 hours, FIG. 4C)?
**A.** inhibited colonization in the nasopharynx significantly

**Q.** What about the “colonization of the lung” value ([1]; inoculum 10^6, 40 μg/ml, 3, 6 and 24 hours, FIG. 4D) of the same molecule?
**A.** significantly inhibited colonization of the lung

**Q.** And the “colonization of the nasopharynx” value ([1]; inoculum 10^6, 40 μg/ml, FIG. 4C)?
**A.** significantly higher ability to inhibit S. pneumoniae colonization of the nasopharynx

**Q.** What about the “bacteria in the lungs” value ([1]; inoculum 10^6, 20 or 40 μg/ml, 48 hours, FIG. 4D) of the same molecule?
**A.** no bacteria could be detected in the lungs

**Q.** What about the “bacteria in the lungs” value ([1]; new peptide preparation, 48 hr following inoculation, FIG. 10C) of the same molecule?
**A.** no bacteria could be found in the lungs

**Q.** And the nasopharyngeal colonization ([1]; new peptide preparation, pneumonia-causing batch, 10^6 bacteria, FIG. 10A)?
**A.** prevented completely

**Q.** What about the “aspiration of the bacteria to the lungs” value ([1]; new peptide preparation, pneumonia-causing batch, 10^6 bacteria, FIG. 10B) of the same molecule?
**A.** prevented completely

**Q.** And the “number of bacteria in the lungs” value ([1]; peptide 1 hr after inoculation, 3 hours after peptide)?
**A.** reduced significantly

**Q.** What about the “inhibition of adhesion to A549” value ([2]; 5 μg/well) of the same molecule?
**A.** significantly

**Q.** What about the “inhibition of adhesion to A549 cells” value ([2]; 20 μg/well) of the same molecule?
**A.** 90%

**Q.** What about the survival rate ([3]; 100 CFU i.p., bacteria treated ex-vivo 1 hr, FIG. 14, p<0.05) of the same molecule?
**A.** increased the survival rate of the mice significantly

**Q.** What about the “bacteria in the spleens” value ([3]; 100 CFU i.p., co-administered, FIG. 15) of the same molecule?
**A.** no bacteria could be recovered from the spleens

**Q.** And the survival ([3]; lethal dose i.p., co-administration, FIG. 16, p<0.001)?
**A.** significant increase in survival

**Q.** And the “maximal inhibition of adhesion to A549 cells” value ([4]; 15 μg/well, FIG. 3A)?
**A.** 80%

**Q.** What about the “binding of FCRP to rFBA” value (rFBA) of the same molecule?
**A.** a band of 33.5 kDa was shown to bind FCRP

**Q.** What about the maximal adhesion inhibition ([5]; 20 μg/well, FIG. 3B) of the same molecule?
**A.** 41%

**Q.** And the “bacterial load (FIG. 13A)” value ([6]; one post inoculation treatment, 3 and 48 hrs)?
**A.** reduced bacterial load significantly

**Q.** And the “bacterial load in lungs (FIG. 13B)” value ([6]; post inoculation treatment, 24 hour)?
**A.** clear reduction in bacterial load

**Q.** And the “inhibition of adhesion to A549” value ([7]; 5 μg/well, p<0.001)?
**A.** significantly

**Q.** What about the “inhibition of adhesion to A549 cells” value ([7]; 15 μg/well) of the same molecule?
**A.** 75%

B1: rFBA: Recombinant Fructose Bisphosphate Aldolase (FBA; SP0605 Streptococcus pneumoniae TIGR4), 33.5 kDa FBA-HAT fusion protein (protein)
chain: MAIVSAEKFVQAARDNGYAVGGFNTNNLEWTQAILRAAEAKKAPVLIQTSMGAAKYMGGYKVARNLIANLVESMGITVPVAIHLDHGHYEDALECIEVGYTSIMFDGSHLPVEENLKLAKEVVEKAHAKGISVEAEVGTIGGEEDGIIGKGELAPIEDAKAMVETGIDFLAAGIGNIHGPYPVNWEGLDLDHLQKLTEALPGFPIVLHGGSGIPDEQIQAAIKLGVAKVNVNTECQIAFANATRKFARDYEANEAEYDKKKLFDPRKFLADGVKAIQASVEERIDVFGSEGKA
modifications: left off: small tags and cut ends
notes: Recombinant Fructose Bisphosphate Aldolase (FBA; SP0605 Streptococcus pneumoniae TIGR4), 33.5 kDa FBA-HAT fusion protein
**Q.** Which “inhibition of adhesion to A549 cells” value ([4]; 0.5 μg/well, protein added to cells, FIG. 5A) does the source give for B1 here?
**A.** 63%

**Q.** What about the “inhibition of adhesion to A549 cells” value ([5]; 12 μg/well, protein added to cells, FIG. 5B) of the same molecule?
**A.** 92%
